“And” between values parts separate entries of the source, which are not always exact repeats. Equal entries are not always repeated. Where two headings read alike, the source gives them in different places.
Columns and labels:
[1] = target: T1, human KSP motor domain (KSP(367H)) (Homo sapiens, UniProt P52732); assay: Kinesin ATPase in vitro assay (KSP ATPase, quinaldine red/ammonium molybdate phosphate detection); type: biochemical
T1 construct: were used to amplify the motor domain and the neck linker region; made in house; host or cells: E. coli BL21 (DE3), pRSETa
T1 sequence (P52732 18-359 limits assumed): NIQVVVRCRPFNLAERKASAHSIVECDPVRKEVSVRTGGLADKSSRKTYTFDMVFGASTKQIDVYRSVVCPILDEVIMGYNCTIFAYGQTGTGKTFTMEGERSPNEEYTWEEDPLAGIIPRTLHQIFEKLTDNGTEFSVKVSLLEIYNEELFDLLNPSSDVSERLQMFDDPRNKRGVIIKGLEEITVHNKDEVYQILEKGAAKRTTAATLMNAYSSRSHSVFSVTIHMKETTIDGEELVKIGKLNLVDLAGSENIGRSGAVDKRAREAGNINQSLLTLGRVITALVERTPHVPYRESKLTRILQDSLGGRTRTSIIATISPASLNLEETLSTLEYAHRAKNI
Text: Plasmids for the expression of the human KSP motor domain construct were cloned by PCR using a pBluescript full length human KSP construct (Blangy et al., Cell, vol. 83, pp 1159-1169, 1995) as a template. The N-terminal primer 5′-[…] (SEQ.ID.NO.: 1) and the C-terminal primer 5′-[…] […] (SEQ.ID.NO.: 2) were used to amplify the motor domain and the neck linker region. The PCR products were digested with AseI and XhoI, ligated into the NdeI/XhoI digestion product of pRSETa (Invitrogen) and transformed into E. coli BL21 (DE3).
Cells were grown at 37° C. to an OD600 of 0.5. After cooling the culture to room temperature expression of KSP was induced with 100 μM IPTG and incubation was continued overnight. Cells were pelleted by centrifugation and washed once with ice-cold PBS. Pellets were flash-frozen and stored −80° C.
Cell pellets were thawed on ice and resuspended in lysis buffer (50 mM K-HEPES, pH 8.0, 250 mM KCl, 0.1% Tween, 10 mM imidazole, 0.5 mM Mg-ATP, 1 mM PMSF, 2 mM benzimidine, 1× complete protease inhibitor cocktail (Roche)). Cell suspensions were incubated with 1 mg/ml lysozyme and 5 mM β-mercaptoethanol on ice for 10 minutes, followed by sonication (3×30 sec). All subsequent procedures were performed at 4° C. Lysates were centrifuged at 40,000×g for 40 minutes. Supernatants were diluted and loaded onto an SP Sepharose column (Phamacia, 5 ml cartridge) in buffer A (50 mM K-HEPES, pH 6.8, 1 mM MgCl2, 1 mM EGTA, 10 μM Mg-ATP, 1 mM DTT) and eluted with a 0 to 750 mM KCl gradient in buffer A. Fractions containing KSP were pooled and incubated with Ni-NTA resin (Qiagen) for one hour. The resin was washed three times with buffer B (Lysis buffer minus PMSF and protease inhibitor cocktail), followed by three 15-minute incubations and washes with buffer B. Finally, the resin was incubated and washed for 15 minutes three times with buffer C (same as buffer B except for pH 6.0) and poured into a column. KSP was eluted with elution buffer (identical to buffer B except for 150 mM KCl and 250 mM imidazole). KSP-containing fractions were pooled, made 10% in sucrose, and stored at −80° C.
Microtubules are prepared from tubulin isolated from bovine brain. Purified tubulin (>97% MAP-free) at 1 mg/ml is polymerized at 37° C. in the presence of 10 μM paclitaxel, 1 mM DTT, 1 mM GTP in BRB80 buffer (80 mM K-PIPES, 1 mM EGTA, 1 mM MgCl2 at pH 6.8). The resulting microtubules are separated from non-polymerized tubulin by ultracentrifugation and removal of the supernatant. The pellet, containing the microtubules, is gently resuspended in 10 μM paclitaxel, 1 mM DTT, 50 μg/ml ampicillin, and 5 μg/ml chloramphenicol in BRB80.
(§1) The kinesin motor domain (20 nM) is incubated with microtubules, ATP (1 mM 1:1 MgCl2: Na-ATP), and compound at 23° C. in buffer containing 80 mM K-HEPES (pH 7.0), 1 mM EGTA, 1 mM DTT, 1 mM MgCl2, and 50 mM KCl. The reaction is terminated by a 2-10 fold dilution with a final buffer composition of 80 mM HEPES and 50 mM EDTA (or, alternately, with a 1:1 addition of reaction volume to stop buffer(1.8M KCl and 50 mM EDTA)). Free phosphate from the ATP hydrolysis reaction is measured via a quinaldine red/ammonium molybdate assay by adding a 1.5 times volume of quench C (e.g., to a mixture of […] reaction volume+40 μl stop buffer is then added 120 μl quench C). Quench A contains 0.1 mg/ml quinaldine red and 0.14% polyvinyl alcohol; quench B contains 12.3 mM ammonium molybdate tetrahydrate in 1.15 M sulfuric acid. Quench C is a 2:1 ratio of quench A:quench B The reaction is incubated for 5-10 minutes at 23° C., and the absorbance of the phospho-molybdate complex is measured at 540 nm.
In order to identify compounds useful in the methods of the instant invention, the assay described above was then performed in the presence (0.5 μM) and absence of microtubules. Compounds that are commercially available are noted by the source and catalog number.

[2] = target: T1, human KSP motor domain (KSP(367H)); assay: Substrate competitive profile by Michaelis-Menton analysis with the KSP ATPase assay; type: biochemical; conditions: for Competitive with ATP?: ATP varied between 4 μM and 500 μM, in the presence of 2 μM of microtubules; for Competitive with MT?: microtubules varied between 0.01 μM and 5 μM, in the presence of 1 mM of ATP
Description: as §1
The in vitro substrate competitive profiles of the compounds described in Table 1 below were determined using a Michaelis-Menton analysis with the assay described above, but varying assay concentrations of one of the substrates (ATP or microtubule) in the presence of excess of the second substrate. Thus, the concentration of ATP was varied between 4 μM and 500 μM, in the presence of 2 μM of microtubules. And the concentration of microtubules was varied between 0.01 μM and 5 μM, in the presence of 1 mM of ATP.

[3] = Table 1, kinesin motor domain 20 nM, with microtubules, 1 mM ATP, 23° C., read-out: KSP ATPase IC50
[4] = Table 2, microtubules absent (basal), [MT] = 0 uM, standard KSP(ADP), read-out: KSP ATPase IC50 (nM) [MT] = 0 uM
[5] = Table 2, microtubules present, [MT] = 0.5 uM, standard KSP(ADP), read-out: KSP ATPase IC50 (nM) [MT] = 0.5 uM

Compound | IC50 [1, 3] | IC50 [1, 4] | IC50 [1, 5] | Competitive with ATP? [2] | Competitive with MT? [2] | IC50 ([1]; KSP ATPase IC50 (nM) [MT] = 0 uM, Table 2, microtubules absent (basal), [MT] = 0 uM, standard KSP(ADP)) | IC50 ([1]; KSP ATPase IC50 (nM) [MT] = 0.5 uM, Table 2, microtubules present, [MT] = 0.5 uM, standard KSP(ADP)) | IC50 ([1]; KSP ATPase IC50 (nM), Table 1, kinesin motor domain 20 nM, with microtubules, 1 mM ATP, 23° C.)
Cc1ccc(NC(=O)C(c2ccccc2)c2ccccc2)cc1[N+](=O)[O-] [Compound 7] | 3850 nM | > 50000 nM | 3690 nM and 6290 nM | no | no | – | – | –
CCCc1cc(N)c2cc(NC(=O)c3ccc(Oc4ccc(Cl)cc4)cc3)ccc2n1 [Compound 4] | 3230 nM | > 50000 nM | 2550 nM and 3430 nM | no | no | – | – | –
O=C(NC(C(=O)c1ccccc1)c1ccccc1)OCc1ccccc1 (centres unmarked) [Compound 3, N-(2-Oxo-1,2-diphenyl-ethyl)-carbamic acid benzyl ester] | 2360 nM | > 50000 nM | 4050 nM and 2940 nM | no | no | – | – | –
C=CCNC(=O)c1cc(-c2ccc(Cl)cc2)n(-c2cc(Cl)ccc2Cl)n1 [Compound 8] | 5040 nM | > 50000 nM | 3100 nM and 5540 nM | no | no | – | – | –
CC(C)(C)c1cccc(NC(=O)Nc2ccc3ccc(O)cc3c2)c1 [Compound 6, N-(3-tert-butylphenyl)-N-(7-hydroxy-2-naphthyl)urea] | 1900 nM | > 50000 nM | 2780 nM | no | no | – | – | –
O=C(Nc1ccc(Br)c(Cl)c1)C(c1ccccc1)c1ccccc1 [Compound 9] | 692 nM | > 50000 nM | 647 nM | no | no | – | – | –
CC(C)(C)c1ccc2[nH]c3c(c2c1)CCCC3=O [Compound 1] | 597 nM | > 50000 nM | 619 nM and 685 nM | no | no | – | – | –
CCN1C(=O)C(O)(c2ccccc2)c2cc(Br)ccc21 (centres unmarked) [Compound 14] | – | – | – | no | no | > 50000 nM | 8920 nM and 4600 nM | 3920 nM
Oc1cccc(CC2(Cc3cccc(O)c3)Cc3ccccc3C2)c1 [Compound 5] | 5870 nM | > 50000 nM | 7740 nM | no | no | – | – | –
O=C(Nc1nc2ccccc2s1)C(c1ccccc1)c1ccccc1 [Compound 2] | 1090 nM | > 50000 nM | 1400 nM and 2150 nM | no | no | – | – | –

Now from value to compound, other results behind:

IC50 [1, 3] | IC50 [1, 4] | IC50 [1, 5] | Competitive with ATP? [2] | Competitive with MT? [2] | Compound | IC50 ([1]; KSP ATPase IC50 (nM) [MT] = 0 uM, Table 2, microtubules absent (basal), [MT] = 0 uM, standard KSP(ADP)) | IC50 ([1]; KSP ATPase IC50 (nM) [MT] = 0.5 uM, Table 2, microtubules present, [MT] = 0.5 uM, standard KSP(ADP)) | IC50 ([1]; KSP ATPase IC50 (nM), Table 1, kinesin motor domain 20 nM, with microtubules, 1 mM ATP, 23° C.)
864 nM | > 50000 nM | 2530 nM and 4520 nM | no | no | O=C(c1cc([N+](=O)[O-])ccc1Cl)N1c2ccccc2Sc2ccccc21 [Compound 13] | – | – | –
7020 nM and 6750 nM | > 50000 nM | 8880 nM | no | no | CSc1ccc(C(=O)N2CCCN(CC(=O)Nc3ccc(F)cc3)CC2)s1 [Compound 15] | – | – | –
556 nM | > 50000 nM | 1150 nM | no | – | CCOC(=O)CSc1nc(C23CC4CC(CC(C4)C2)C3)ccc1C#N [Compound 12] | – | – | –
4750 nM | > 50000 nM | 5040 nM | no | no | Cc1cc2ncn(CC(O)COc3ccc(I)cc3)c2cc1C (centres unmarked) [Compound 10] | – | – | –
1230 nM | > 50000 nM | 1820 nM and 1360 nM | no | no | Cc1nn(C(=S)NCc2ccccc2)c2c1[C@H]1[C@@H](C2)C1(C)C [Compound 11] | – | – | –
